These results are taken from US6887873B2, “Triazine derivatives and their application as antitelomerase agents” (Aventis Pharma S.A., priority 2001, dated 2005).

The subject of experiment [1] is human telomerease (HL60 cell extract). Description: Antitelomerease activity: extension of oligonucleotide TS followed by PCR amplification, with HL60 extract. The conditions noted are these: read-out: TRAP IC50. The experiment is classed as biochemical. On the procedure: The antitelomerease biological activity is determined by the following experimental protocol:
The leukaemia line HL60 is obtained from ATCC (American Type Culture Collection, Rockville, USA). The cells are cultured in suspension in RPMI 1640 medium containing L-glutamine at 2 mM, penicillin 200 U/ml, streptomycin 200 μg/ml, gentamycin 50 μg/ml and supplemented with 10% heat-inactivated foetal calf serum.
An aliquot of 10^5 cells is centrifuged at 3000×G and the supernatant discarded. The cell pellet is resuspended by several successive pipettings in 200 μl of lysis buffer containing 0.5% CHAPS, 10 mM Tris-HCl, pH 7.5, 1 mM MgCl2, 1 mM EGTA, 5 mM β-mercaptoethanol, 0.1 mM PMSF and 10% glycerol and is stored in ice for 30 minutes. The lysate is centrifuged at 160,000×G for 20 minutes at 4° C. and 160 μl of supernatant are recovered. The proteins in the extract are assayed by the Bradford method. The extract is stored at −80° C.
The inhibition of the telomerease activity is determined by a protocol for extension of the oligonucleotide TS (^5′AATCGTTCGAGCAGAGTT^3′), in the presence of a cellular extract enriched in telomerease activity and compounds which are added at various concentrations (10, 1, 0.1 and 0.01 μM). The extension reaction is followed by a PCR amplification of the extension products with the aid of the oligonucleotides TS and CXext (^5′[…]^3′).
The reaction medium is prepared based on the following composition:
The oligonucleotides are obtained from Eurogentec (Belgium) and are stored at −20° C. at a stock concentration of 1 mg/ml in distilled water.
The reaction samples are assembled in 0.2 ml PCR tubes and one drop of paraffin oil is deposited on each of the reactions of the experiment before closing the tubes.
The reaction samples are then incubated in a Cetus 4800-type PCR apparatus under the following temperature conditions: • 15 minutes at 30° C., • 1 minute at 90° C., • followed by 30 cycles of, • 30 seconds at 94° C., • 30 seconds at 50° C., • and 1 minute 30 seconds at 72° C., • followed by a final cycle of 2 minutes at 72° C.
For each of the samples, an aliquot of 10 μl is pipetted under the oil layer and mixed with 5 μl of a loading buffer containing:
The samples are then analysed by electrophoresis on 12% acrylamide gel in a 1×TBE buffer for 1 hour at a voltage of 200 volts, with the aid of a Novex electrophoresis system.
The acrylamide gels are then dried on a sheet of Whatmann 3 mm paper at 80° C. for 1 hour.
The analysis and the quantification of the reaction products are carried out with the aid of an InstantImager apparatus (Pacard).
For each compound concentration tested, the results are expressed as percentage inhibition of the reaction and calculated from the untreated enzymatic control and from the enzyme-free sample (blank) according to the following formula: (compound value−blank value/enzymatic control value−blank value)×100.
The concentration of compound inducing a 50% inhibition of the telomerease reaction (IC50) is determined with the aid of a semilogarithmic graphical representation of the inhibition values obtained as a function of each of the compound concentrations tested.
A compound is considered to be active as an antitelomerease agent when the quantity inhibiting 50% of the telomerease reaction is in particular less than 5 μM.

In experiment [2] the test system is G-quadruplex of oligonucleotide GGGTTAGGGTTAGGGTTAGGG (3.5 repeats of the human telomereic motif). Nature of the experiment: G-quadruplex stabilizing activity, fluorescence Tm (FAM+DABCYL oligonucleotide). The format is binding. From the text:
The G-quadruplex stabilizing activity may be determined by a method using the formation of a complex with fluorescein of which the experimental protocol is described below.
All the nucleotides, modified or otherwise, were synthesized by Eurogentec SA, Seraing, Belgium. The oligonucleotide FAM+DABCYL carries the catalogue reference OL-0371-0802. It has the sequence: […] corresponding to 3.5 repeats of the human telomereic motif (strand rich in G). The fluorescein is attached to the 5′ end, the DABCYL to the 3′ end, by the chemical arms described by Eurogentec. The concentration of the samples is checked by spectrophotometry, recording the absorbance spectrum between 220 and 700 nm and using the molar extinction coefficient provided by the supplier.
All the experiments were carried out in a 10 mM sodium cacodylate buffer pH 7.6 containing 0.1 M lithium chloride (or sodium chloride). The absence of fluorescent contamination in the buffer was checked beforehand. The fluorescent oligonucleotide is added at the final concentration of 0.2 μM.
All the measurements of fluorescence were carried out on a Spex Fluorolog DM1B apparatus, using an excitation line width of 1.8 nm and an emission line width of 4.5 nm. The samples are placed in a microquartz cuvette of 0.2×1 cm. The temperature of the sample is controlled by an external water bath. The oligonucleotide alone was analysed at 20, 30, 40, 50, 60, 70 and 80° C. The emission spectra are recorded using an excitation wavelength of 470 nm. The excitation spectra are recorded using either 515 nm or 588 nm as emission wavelength. The spectra are corrected for the response of the instrument by reference curves. A high extinction (80-90%) of the fluorescence of fluorescein at room temperature is observed, in agreement with an intramolecular folding of the oligonucleotide at 20° C. in the form of a G-quadruplex, which induces juxtaposition of its 5′ and 3′ ends which are respectively linked to fluorescein and to DABCYL. This juxtaposition causes an already-described phenomenon of extinction of fluorescence which is used for “molecular beacons”.
An oligonucleotide stock solution at the strand concentration of 0.2 μM in 0.1 M LiCl, 10 mM cacodylate buffer, pH 7.6, is prepared beforehand, heated briefly at 90° C. and slowly cooled to 20° C., and then distributed in aliquots of 600 μl in the fluorescence cuvettes. 3 μl of water (for the control) or 3 μl of test product (stock at 200 μM, final concentration 1 μM) are then added and mixed. The samples are then allowed to incubate for at least 1 hour at 20° C. before each measurement. The use of longer incubation times (up to 24 hours) has no influence on the result obtained.
Each experiment allows the measurement of only one sample. The latter is first incubated at an initial temperature of 20° C., heated to 80° C. over 38 minutes, left for 5 minutes at 80° C. and then cooled to 20° C. over 62 minutes. During this time, the fluorescence is measured simultaneously at two emission wavelengths (515 nm and 588 nm) using 470 nm as excitation wavelength. A measurement is carried out every 30 seconds. The temperature of the water bath is recorded in parallel, and the fluorescence profile as a function of the temperature is reconstituted from these values. The fluorescence profiles are then normalized between 20° C. and 80° C., and the temperature for which the intensity of emission at 515 nm is the mean of those at high and low temperature is called Tm. Under these conditions, the Tm of the reference sample without addition of product is 44° C. in a lithium chloride buffer. This temperature is increased to more than 55° C. in a sodium chloride buffer. The addition of a G-quadruplex-stabilizing compound induces an increase in the Tm. This increase is judged to be significant if it is greater than 3°.

By IC50 is commonly meant the concentration that gives 50% inhibition.

Consider `Cc1cc(N)c2cc(Nc3nc(Nc4ccc5nc(C)cc(N)c5c4)nc(OCc4ccccc4)n3)ccc2n1` [Example 33, 2,4-bis(4-amino-2-methylquinolin-6-yl)amino-6-(phenylmethyl)oxy-[1,3,5]triazine], for which, in experiment [1], the IC50 came to 400 nM. The “G4 delta Tm” value in experiment [2] was found to be 10.0 °C.
In the case of `Cc1cc(N)c2cc(Nc3nc(Nc4ccc5nc(C)cc(N)c5c4)nc(N4CCN(CCCN(C)C)CC4)n3)ccc2n1` [Example 64], the IC50 in experiment [1] is 90 nM. The “G4 delta Tm” value in experiment [2] amounted to 12 °C.
On the same counts, the results for `Cc1cc(N)c2cc(Nc3nc(NCC4CCCN4)nc(Nc4ccc5nc(C)cc(N)c5c4)n3)ccc2n1` (stereo not shown) [Example 16] are 80 nM and 7.3 °C.
Taken in the same sequence, the figures for `Cc1cc(N)c2cc(Nc3nc(NCc4ccccn4)nc(Nc4ccc5nc(C)cc(N)c5c4)n3)ccc2n1` [Example 49] were 1000 nM and 10 °C.
On the same counts, the results for `Cc1cc(N(C)C)c2cc(Nc3nc(Nc4ccc5nc(C)cc(N(C)C)c5c4)nc(NC(CO)CO)n3)ccc2n1` [Example 170] are 1300 nM and 3 °C.
On to `COc1cccc(Sc2nc(Nc3ccc4nc(C)cc(N)c4c3)nc(Nc3ccc4nc(C)cc(N)c4c3)n2)c1` [Example 122], for which the IC50 in experiment [1] is 370 nM. Further, the “G4 delta Tm” value in experiment [2] worked out at 13.5 °C.
Taken in the same sequence, the figures for `Cc1cc(N)c2cc(Nc3nc(Nc4ccc5nc(C)cc(N)c5c4)nc(OCc4ccccn4)n3)ccc2n1` [Example 114] were 1260 nM and 13.5 °C.
Taken in the same sequence, the figures for `COc1cccc(CNc2nc(Nc3ccc4nc(C)cc(N)c4c3)nc(Nc3ccc4nc(C)cc(N)c4c3)n2)c1` [Example 52] were 1300 nM and 6.5 °C.
Taken in the same sequence, the figures for `CCN(CC)CCN1CCN(c2nc(Nc3ccc4nc(C)cc(N)c4c3)nc(Nc3ccc4nc(C)cc(N)c4c3)n2)CC1` [Example 44] were 100 nM and 17 °C.
For the compound `Cc1cc(N)c2cc(Nc3nc(NCCN4CCCC4)nc(Nc4ccc5nc(C)cc(N)c5c4)n3)ccc2n1` [Example 46], in experiment [1], the IC50 was 1000 nM. The “G4 delta Tm” value in experiment [2] is 18.5 °C.
Taken in the same sequence, the figures for `COC(C)CNc1nc(Nc2ccc3nc(C)cc(N)c3c2)nc(Nc2ccc3nc(C)cc(N)c3c2)n1` (stereo not shown) [Example 156] were 1200 nM and 14.5 °C.
As for `COC(C)CNc1nc(Nc2ccc3nc(C)cc(N(C)C)c3c2)nc(Nc2ccc3nc(C)cc(N(C)C)c3c2)n1` (stereo not shown) [Example 165], in experiment [1], the IC50 came out at 1400 nM. In addition, the “G4 delta Tm” value in experiment [2] came out at 6.5 °C.
With `Cc1cc(N)c2cc(Nc3nc(NCC[N+](C)(C)C)nc(Nc4ccc5nc(C)cc(N)c5c4)n3)ccc2n1` [Example 54], the IC50 in experiment [1] came out at 170 nM. Further, the “G4 delta Tm” value in experiment [2] worked out at 16 °C.
On the same counts, the results for `Cc1cc(N)c2cc(Nc3nc(NCCN(CCN(C)C)Cc4ccccc4)nc(Nc4ccc5nc(C)cc(N)c5c4)n3)ccc2n1` [Example 37] are 230 nM and 17.5 °C.
Taken in the same sequence, the figures for `COC(=O)NCCNc1nc(Nc2ccc3nc(C)cc(N)c3c2)nc(Nc2ccc3nc(C)cc(N)c3c2)n1` [Example 38] were 1000 nM and 9.5 °C.
Taken in the same sequence, the figures for `Cc1cc(N(C)C)c2cc(Nc3nc(Nc4ccc5nc(C)cc(N(C)C)c5c4)nc(N4CCC(O)C4)n3)ccc2n1` (stereo not shown) [Example 162] were 1700 nM and 17 °C.
Regarding `Cc1cc(C)nc(Oc2nc(Nc3ccc4nc(C)cc(N)c4c3)nc(Nc3ccc4nc(C)cc(N)c4c3)n2)n1` [Example 109], in experiment [1], the 50% inhibitory concentration (IC50) stood at 340 nM. In addition, the “G4 delta Tm” value in experiment [2] was 4.5 °C.
Taken in the same sequence, the figures for `Cc1cc(N)c2cc(Nc3nc(Nc4ccc5nc(C)cc(N)c5c4)nc(N4CCC(O)C4)n3)ccc2n1` (stereo not shown) [Example 153] were 410 nM and 10 °C.
Taken in the same sequence, the figures for `CCN(CCSc1nc(Nc2ccc3nc(C)cc(N)c3c2)nc(Nc2ccc3nc(C)cc(N)c3c2)n1)Cc1ccccc1` [Example 131] were 910 nM and 4.5 °C.
On the same counts, the results for `Cc1cc(N(C)C)c2cc(Nc3nc(Nc4ccc5nc(C)cc(N(C)C)c5c4)nc(N4CCC(O)CC4)n3)ccc2n1` [Example 164] are 1600 nM and 12.5 °C.
Regarding `Cc1cc(N)c2cc(Nc3nc(Nc4ccccc4Cl)nc(NC4CCN(C)CC4)n3)ccc2n1` [Example 7], in experiment [1], the IC50 is 2400 nM. Besides, the “G4 delta Tm” value in experiment [2] was found to be 3.0 °C.
On the same counts, the results for `Cc1cc(N)c2cc(Nc3nc(Nc4ccccc4Cl)nc(N4CCN(C)CC4)n3)ccc2n1` [Example 8] are 3200 nM and 1.5 °C.
Taken in the same sequence, the figures for `Cc1cc(N(C)C)c2cc(Nc3nc(Nc4ccc5nc(C)cc(N(C)C)c5c4)nc(NC(CO)C(=O)O)n3)ccc2n1` (stereo not shown) [Example 171] were 490 nM and 13 °C.
For `COC(=O)CSc1nc(Nc2ccc3nc(C)cc(N)c3c2)nc(Nc2ccc3nc(C)cc(N)c3c2)n1` [Example 125], in experiment [1], the IC50 came out at 360 nM. Moreover, the “G4 delta Tm” value in experiment [2] came to 14.5 °C.
Taken in the same sequence, the figures for `Cc1cc(N)c2cc(Nc3nc(Nc4ccncc4)nc(Nc4ccc5nc(C)cc(N)c5c4)n3)ccc2n1` [Example 10] were 360 nM and 8.9 °C.
With `COCC1CCCN1c1nc(Nc2ccc3nc(C)cc(N)c3c2)nc(Nc2ccc3nc(C)cc(N)c3c2)n1` (stereo not shown) [Example 159], the half-maximal inhibitory concentration (IC50) in experiment [1] came to 430 nM. Moreover, the “G4 delta Tm” value in experiment [2] was 10.5 °C.
